# Measurements taken from patent US20110250290A1, “DISINFECTANT COMPOSITIONS” (priority 2006, published 2011).
# How the values were obtained:
# [1] = tested on: Pseudomonas syringae pv. phaseolicola HB-9 biofilm; assay: PspHB-9 biofilm susceptibility to Oxysilver and copper sulfate
# [2] = tested on: Pseudomonas syringae pv. phaseolicola HB-9 planktonic; assay: PspHB-9 planktonic susceptibility to Oxysilver and copper sulfate
smiles,measurement,setting,value
O=S(=O)([O-])[O-].[Cu+2] [Copper sulfate],"Bacteria/biofilm growth PspHB-9 Biofilm, cell counts",[1]; 1250 ppm,5.15 log10
same,"Bacteria/biofilm growth PspHB-9 Biofilm, cell counts",[1]; 2900 ppm,0 log10
same,"Bacteria/biofilm growth PspHB-9 Biofilm, cell counts",[1]; 4600 ppm,0 log10
same,concentration needed to be effective,[1]; planktonic and biofilm PspHB-9,at least 11460 ppm
same,"Bacteria growth PspHB-9 Planktonic, cell counts",[2]; 1250 ppm,2.95 log10
same,"Bacteria growth PspHB-9 Planktonic, cell counts",[2]; 2900 ppm,0 log10
same,"Bacteria growth PspHB-9 Planktonic, cell counts",[2]; 4600 ppm,0 log10
